Experimental data taken from ChEMBL document CHEMBL3227973, “Synthesis and platelet aggregation inhibitory activity of 6-isobutyl-alpha-methyl-3-pyridineacetic acid” (1979).
Activity calls are given as the source filed them. The calls are words filed in the database; no cut-off is given here.

Key:
Rattus norvegicus [1] = assay: Ex vivo antiplatelet activity in Sprague-Dawley rat assessed as inhibition of collagen-induced platelet aggregation at 50 mg/kg, po after 1 hr; format: functional
Rattus norvegicus [2] = assay: Ex vivo antiplatelet activity in Sprague-Dawley rat assessed as inhibition of collagen-induced platelet aggregation at 10 mg/kg, po after 1 hr; format: functional
Rattus norvegicus [3] = assay: Ex vivo antiplatelet activity in Sprague-Dawley rat assessed as inhibition of collagen-induced platelet aggregation at 40 mg/kg, po after 1 hr; format: functional
Mus musculus = species on record: Mus musculus; assay: Ex vivo antiplatelet activity in mouse assessed as inhibition of collagen-induced platelet aggregation at equivalent dose of ibuprofen after 1 hr

Compound | inhibition in vivo at 50 mg/kg (Rattus norvegicus [1]) | inhibition in vivo at 10 mg/kg (Rattus norvegicus [2]) | inhibition in vivo at 40 mg/kg (Rattus norvegicus [3]) | inhibition (Mus musculus)
CC(C)Cc1ccc(C(C)C(=O)O)cn1 (stereo not given) | 65% | 33% |  | 
CC(C)Cc1ccc(C(C)C(=O)O)cc1 (stereo not given) [IBUPROFEN] |  | 10% | 88% | 
CC(C)Cc1ccc(C(C)C(=O)O)c(Cl)n1 (stereo not given) |  |  |  | inactive
